Where no end group is shown, it is not given here.
Key:
[1] = tested on: GAD 546-554 specific CD8 T cell clone (CTL.546L); test: Interferon gamma release of CTL.546L co-cultured with bioconjugate-treated M12C3.B7 APCs; type: cell-based, mouse; settings: compared with free peptide GAD 546-544; M12C3.B7 APCs treated 3 hours, co-culture 24 hours (FIG. 29)
Experimental: M12C3B7, B cell line, was used as an APC. […] Later, these cells were co-cultured with CTL.546.L (2×10^5 cells/well) for 24 hours. After 24 hours of incubation, supernatants were collected for studying the interferon gamma release.
Co-culture was incubated for 24 hours at 37° C. Supernatants were used to study the IFNγ release.

[2] = tested on: GAD 546-554 specific CD8 T cell clone; test: Cytokine release of GAD 546-554 specific CD8 T cell clone incubated with APLs and antigen presenting cells; type: cell-based, mouse; settings: CD8 T cell clone incubated with APL and antigen presenting cells
Description: Immune cells protect the human body from foreign antigens. However, in autoimmune diseases like type 1 diabetes (T1D), autoreactive T cells recognize pancreatic beta cell related proteins as antigens, leading to beta cell destruction. An altered peptide ligand (APL) strategy can be used to target autoreactive T cells in T1D. GAD 546-554 (SEQ ID NO: 7) is reported as a dominant epitope recognized by autoreactive T cells, in the non-obese diabetic mouse model, that can cause destruction of beta cells. Nine APLs which have single alanine substitution, at different positions of GAD 546-554 (SEQ ID NO: 7), were screened. When GAD 546-554 (SEQ ID NO: 7) specific CD8 T cell clone was incubated with different APLs and antigen presenting cells, APL9 (SEQ ID NO: 8) inhibited both IFN-γ and TNF-α release. In order to improve antigen presentation and endosomal escape of APL9 (SEQ ID NO: 8), a bioconjugate platform of a liposome containing a Formula I bioconjugate of APL9 (SEQ ID NO: 8) and the toll like receptor ligand, Pam3CysSK4 (“CysSK4” disclosed as SEQ ID NO: 16), as well as antibody against macrophage and dendritic cell protein, F4/80, was developed. This immunotherapy strategy is beneficial to prevent T1D by rendering autoreactive immune cells more tolerant of beta cells. […]

Splenocytes = test: T stimulation assay with IFNγ secreting ELISPOT kit on splenocytes of treated NOD mice; type: cell-based, NOD female mice
Experimental: (FIG. 30.) Further, this system was studied in non-diabetic non-obese diabetic model (NOD). […] These mice were sacrificed and their spleens were collected for performing T stimulation assay using IFNγ secreting ELISPOT kit. […] After 36 hours of incubation, IFNγ secreting cells were looked for.

bioconjugate 546-554: Formula I bioconjugate of GAD 546-554 (SYQPLGDKV, SEQ ID NO: 7) with Pam3CysSK4 (also: Formula I bioconjugate with Pam3CysSK4, attachment site not given here)
IFNγ release [1]: significantly lower

SYQPLGDAV [APL9]
IFN-γ release [2]: inhibited
TNF-α release [2]: inhibited

bioconjugate GAD 541-554: bioconjugate of GAD 541-554 (GTTMVSYQPLGDKV, SEQ ID NO: 6) (also: bioconjugate moiety, kind and site not given here)
number of IFNγ secreting cells (Splenocytes; splenocytes from vehicle treated NOD mice, treated in vitro for 36 hours (FIG. 31)): increase in number of IFNγ secreting cells
number of IFNγ secreting cells (Splenocytes; splenocytes of NOD mice primed for three consecutive weeks, then treated with either bioconjugate or bioconjugate with F4/80 for 36 hours): increase in number of IFNγ secreting cells
